Results on one compound are retold here after patent publication US9339564B2, “Ether and alkyl phospholipid compounds for treating cancer and imaging and detection of cancer” (Cellectar, Inc., priority 2009, dated 2016).

In assay [1] the test system is benign or premalignant lesions or inflammatory lesions. Put plainly: Localization of CLR1404 in non-malignant lesions. The settings on record: stated in contrast to 18F-FDG. Type of assay: in vivo. The source says: (§1) We have developed several series of tumor-selective radiolabeled ether and alkyl phospholipid compounds for imaging, characterization, and treatment of malignant tumors. […] Cellular signaling and regulation of phospholipids, including phospholipase-D and its isoforms, as well as Phosphatase and Tensin Homologue Deleted from Chromosome-10 (PTEN) and phosphatidylinositol phosphate (PIPn) pathways, are known to be directly involved in upstream regulation of many key oncogenic pathways. We now have strong evidence that the uptake and retention of our PLE analogs is due at least in part to these upstream regulation and signaling cancer cell pathways.

Assay [2] relates to solid xenograft and spontaneous human tumor and rodent tumor models. Put plainly: Tumor uptake and retention of CLR1404 in tumor models. The format is in vivo. The settings on record: over fifty solid xenograft and spontaneous human tumor and rodent tumor models.
Text: as §1
In general terms: In xenograft studies the graft and the host belong to different species.

For `C[N+](C)(C)CCOP(=O)([O-])OCCCCCCCCCCCCCCCCCCc1ccc(I)cc1` [CLR1404, 18-(p-iodophenyl)octadecyl phosphocholine], the “localization in benign, premalignant or inflammatory lesions” value in assay [1] is “does not localize in benign or premalignant lesions or in inflammatory lesions”. Moreover, the “uptake and retention in tumors” value in assay [2] is “striking uptake and prolonged selective retention properties”.
